Experimental data from US20200254065A1, “LONG-ACTING GLP-2 ANALOGS” (OPKO Biologics Ltd., priority 2019, published 2020).
“Also recorded” adds a separate entry of the source. Square brackets hold non-standard residues; d marks the D form. Peptide text beside a SMILES is read from it. Nle = CCCC[C@H](N)C(=O)O

Columns and labels:
[1] = Stability of GLP-2 analogues on incubation at 37° C. (appearance, O.D. reading, RP-HPLC); format: physicochemical; settings: following 48 h incubation at 37° C.
Description: The GLP-2 analogues were tested for stability via appearance, O.D. reading (A.280, and A.325) and RP-HPLC (purity, and peak area) following t=0, 1 day, and 48 h incubation at 37° C.

[2] = molecular target: T1, GLP-2 receptor (Homo sapiens, UniProt O95838); assay: GLP-2 receptor Cell Based Assay (CBA)
T1 sequence (O95838 1-553): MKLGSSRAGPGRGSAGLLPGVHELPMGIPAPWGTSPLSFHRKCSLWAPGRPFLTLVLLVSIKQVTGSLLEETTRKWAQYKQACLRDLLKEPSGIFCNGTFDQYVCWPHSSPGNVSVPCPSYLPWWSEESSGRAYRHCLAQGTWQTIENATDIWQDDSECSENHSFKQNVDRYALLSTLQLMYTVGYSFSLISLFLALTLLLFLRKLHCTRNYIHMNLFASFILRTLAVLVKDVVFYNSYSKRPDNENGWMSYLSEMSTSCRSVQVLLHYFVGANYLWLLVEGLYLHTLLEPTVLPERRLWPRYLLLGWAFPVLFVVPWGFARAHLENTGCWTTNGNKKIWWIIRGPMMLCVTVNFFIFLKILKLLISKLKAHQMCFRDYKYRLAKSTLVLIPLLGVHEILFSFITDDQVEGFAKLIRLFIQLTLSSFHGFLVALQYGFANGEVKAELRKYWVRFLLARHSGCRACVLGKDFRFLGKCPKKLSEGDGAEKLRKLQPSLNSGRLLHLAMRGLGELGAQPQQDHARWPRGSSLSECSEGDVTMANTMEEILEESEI
Description: Evaluation of in vitro binding affinity of the different peptides was assessed by using Cell Based Assay (CBA) in the presence of escalating doses of the different peptides.

[3] = tested on: intestine epithelium (crypts plus villi); assay: Crypts plus villi length, histopathology of small intestine; format: in vivo, SD rats
Description: In addition to PEG30-FMS-V4 and PEG30-Fmoc-V4 that have been pharmacology evaluated by small intestinal weight evaluation (As shown in Example 5), four other reversible PEGylated variant 4 (“V4”) conjugates and two reversible linker-V4 conjugates were synthesized. All the above were injected to 6 normal SD rats/group once at 2 mg/kg (peptide dose), while on the 6th day, animals were scarified, and the small intestine was weighted followed by histopathology evaluation. […] Therefore, slices from three areas of the intestine (duodenum, jejunum and ilium) were stained with hematoxylin and eosin and at least 7 Crypts+Villi length/slice were measured. The averaged Villi+Crypt length of each treatment group (n=6) was compared to the vehicle group (negative control) and calculated as percentage increase over vehicle. […]
An additional study to evaluate the efficacy and the longevity of V4 and Cys-FMS-V4 was conducted (Study reference 15204) in which the animals were sacrificed on Days 6 (N=6), 10 (N=4) and 14 (N=4). This experiment measured the pharmacological response compared to the commercially approved SBS treatment drug Gattex. In addition, two new conjugates were tested by conjugating V4 to reduced OSu-linker and Cys-FMS-V4 purified from resin. The animals were injected with a single SC injection at Day 1 with 2 mg/kg peptide content of V4, Cys-FMS-V4, FMS-OSu-V4, Apraglutide and Glepaglutide while Gattex was SC injected daily at 2.5 mg/kg peptide content. […]

[4] = Solubility and stability in different buffer systems, concentrations, incubation and freeze-thaw; format: physicochemical; settings: Histidine and NaPi, pH 6.8 to 7.5; 1-10 mg/mL; up to 3 days at 37° C.; up to three freeze-thaw cycles
[5] = 2-compartmental pharmacokinetic modelling (MONOLIX 2018R2); format: in vivo, rat; settings: rat, in vivo
Description: An in-depth PK modeling was performed to address the unexpected differences in half life, distribution, and pharmacological effect between V4, Cys-FMS-V4, and Apraglutide in the rat model. The analysis was performed with MONOLIX 2018R2 suite using a 2-compartmental pharmacokinetic model. The data used in this analysis was comprised from 3 independent experiments (data is presented as their average). The concentration versus time data of V4 that was formed from the Cys-FMS-V4 conjugate (the hydrolyzed peptide) was described appropriately using the values of the pharmacokinetic parameters of V4 peptide. Thus, the disposition of the hydrolyzed V4 was identical to that of the V4 peptide following the IV and SC administration.
The pharmacokinetics of Apraglutide in our studies was determined after SC administration. […] Based on this assumption, the values of volumes of distribution and clearance (Vpept, Vss, Vbeta, and CL) were calculated for Apraglutide (Table 13). The values of the other parameters of Apraglutide in Table 14 (the rate constants and the half-lives) are not dependent on this assumption.

[6] = PK after single IV injection in rats; format: in vivo; settings: rat, in vivo, iv, 2 mg/kg
Text: Blood samples were collected at 0.5, 2, 4, 8, 12, 24, 36, 48, 72, 96- and 120-hours post-dose administration.

[7] = Pharmacokinetics of modified GLP-2 variants in rats; format: in vivo; settings: rat, serum, peptide dose 15 mg/kg

## CCCC[C@H](NC(=O)[C@H](CCC(=O)O)NC(=O)[C@H](CC(=O)O)NC(=O)[C@H](CO)NC(=O)[C@H](Cc1ccccc1)NC(=O)[C@H](CO)NC(=O)CNC(=O)[C@H](CCC(=O)O)NC(=O)CNC(=O)[C@@H](N)Cc1c[nH]cn1)C(=O)N[C@@H](CC(N)=O)C(=O)N[C@H](C(=O)N[C@H](C(=O)N[C@@H](CC(C)C)C(=O)N[C@@H](CC(=O)O)C(=O)N[C@@H](CC(C)C)C(=O)N[C@@H](CC(C)C)C(=O)N[C@@H](C)C(=O)N[C@@H](C)C(=O)N[C@@H](CCCNC(=N)N)C(=O)N[C@@H](CC(=O)O)C(=O)N[C@@H](Cc1ccccc1)C(=O)N[C@H](C(=O)N[C@@H](CC(N)=O)C(=O)N[C@@H](Cc1c[nH]c2ccccc12)C(=O)N[C@@H](CC(C)C)C(=O)N[C@H](C(=O)N[C@@H](CCC(N)=O)C(=O)N[C@H](C(=O)N[C@@H](CCCCN)C(=O)N[C@H](C(=O)N[C@H](C(=O)N[C@@H](CC(=O)O)C(N)=O)[C@@H](C)O)[C@@H](C)CC)[C@@H](C)O)[C@@H](C)CC)[C@@H](C)CC)[C@@H](C)CC)[C@@H](C)O [Variant 4] (H-HGEGSFSDE[Nle]NTILDLLAARDFINWLIQTKITD-NH2)
[1]
  Solubility via appearance: V4: clear
[2]; Table 7
  EC50 Ratio to Teduglutide: 3.8
[2]; Table 8, average of 3 independent CBA
  EC50 Ratio to Teduglutide: 1.8
[3]; Study 15201, 0.5 and 2 mg/kg peptide dose once, 6 days after injection
  Percent increase of Crypts+Villi length over vehicle (FIG. 3): dose dependent pharmacology effect on the intestine epithelium
[3]; Study 15203, single SC 2 mg/kg on Day 1, Days 6 and 10, listed as V4, 2 mg/kg
  Crypts plus villi length percent increase over vehicle (FIG. 13): the most pronounced effect on crypts plus villi length over vehicle compared to Apraglutide and Glepaglutide; also recorded: prolonged activity 10 days following a single SC injection
[3]; Study 15204, single SC 2 mg/kg on Day 1, Days 6, 10 and 14
  Crypts plus villi length percent increase over vehicle (FIG. 14): the most prominent and prolonged effect on villi and crypts length up to 14 days from injection
[3]; Study 15205, single SC 0.5, 2.0 or 8.0 mg/kg, Days 3, 7 and 14
  Villi plus crypts length percent increase over vehicle (FIG. 16): comparable intestinotrophic response on villi and crypt length at all three dose levels
[4]
  CMC perspective, combining purity and solubility: outperformed the rest of the peptides
[5]
  Fold increase of Vbeta as compared to the initial volume of distribution: ~51 fold
  Fold increase of Vss as compared to the initial volume of distribution: ~8 fold
  Ratio (V4/Apraglutide) of CL: 0.96
  Ratio (V4/Apraglutide) of Fpept: 0.54
  Ratio (V4/Apraglutide) of Vbeta: 1.52
  Ratio (V4/Apraglutide) of Vpept: 0.40
  Ratio (V4/Apraglutide) of Vss: 1.68
  Ratio (V4/Apraglutide) of k12: 11.60
  Ratio (V4/Apraglutide) of k21: 1.54
  Ratio (V4/Apraglutide) of ka—pept: 0.44
  Ratio (V4/Apraglutide) of kpepte: 2.40
  Ratio (V4/Apraglutide) of t1/2 absorption: 2.28
  Ratio (V4/Apraglutide) of t1/2 alpha: 0.17
  Ratio (V4/Apraglutide) of t1/2 beta: 1.57
  k12: 0.0749 h⁻¹
  k21: 0.0105 h⁻¹
  ka—pept: 0.0729 h⁻¹
  kpepte: 0.205 h⁻¹
  t1/2 beta: 173.2 h
[5]; Bioavailability lower in comparison to Apraglutide
  bioavailability: 46%
[5]; sc
  Bioavailability following SC injection (reaching the systemic circulation): 40.1%
  CL: 0.215 mL/min/kg
  Fpept: 0.401
  Local degradation of the dose at the injection site: ~60%
  Vd: 3.21 L/kg
  Vpept: 0.0627 L/kg
  Vss: 0.51 L/kg
  t1/2 absorption: 9.51 h
[5]; sc, Bioavailability following SC injection (reaching the systemic circulation)
  bioavailability: ~40%
[5]; sc, t1/2 absorption
  half-life: 9.51 h
[5]; t1/2 alpha
  half-life: 1.29 h
[5]; t1/2 beta
  half-life: 173 h
[6]
  AUC(0-inf): 36.2 µM·h
  AUC(0-t): 33.7 µM·h
  Cl/F_obs: 0.015 (μmol/kg)/(μmol/L)/h
  Cmax: 7.1 µM
  Detectability in blood after IV administration: could not be detected 24 hours post injection
  Tmax: 0.5 h
  Vz/F_obs: 0.068 (μmol/kg)/(μmol/L)
  half-life: 3.2 h
[7]
  half-life: 17.5 h
